# Reference: patent US20100292222A1, “CHEMICAL COMPOUNDS 751” (ASTRAZENECA AB, priority 2009, published 2010)
# Biological target: T1, Androgen Receptor (AR) (Homo sapiens, UniProt P10275, T878A)
# T1 construct: cell based immuno-fluorescence assay using the LNCaP prostate epithelial cell line; host or cells: LNCaP clone FGC prostate carcinoma cells
# T1 sequence (P10275 1-920 T878A): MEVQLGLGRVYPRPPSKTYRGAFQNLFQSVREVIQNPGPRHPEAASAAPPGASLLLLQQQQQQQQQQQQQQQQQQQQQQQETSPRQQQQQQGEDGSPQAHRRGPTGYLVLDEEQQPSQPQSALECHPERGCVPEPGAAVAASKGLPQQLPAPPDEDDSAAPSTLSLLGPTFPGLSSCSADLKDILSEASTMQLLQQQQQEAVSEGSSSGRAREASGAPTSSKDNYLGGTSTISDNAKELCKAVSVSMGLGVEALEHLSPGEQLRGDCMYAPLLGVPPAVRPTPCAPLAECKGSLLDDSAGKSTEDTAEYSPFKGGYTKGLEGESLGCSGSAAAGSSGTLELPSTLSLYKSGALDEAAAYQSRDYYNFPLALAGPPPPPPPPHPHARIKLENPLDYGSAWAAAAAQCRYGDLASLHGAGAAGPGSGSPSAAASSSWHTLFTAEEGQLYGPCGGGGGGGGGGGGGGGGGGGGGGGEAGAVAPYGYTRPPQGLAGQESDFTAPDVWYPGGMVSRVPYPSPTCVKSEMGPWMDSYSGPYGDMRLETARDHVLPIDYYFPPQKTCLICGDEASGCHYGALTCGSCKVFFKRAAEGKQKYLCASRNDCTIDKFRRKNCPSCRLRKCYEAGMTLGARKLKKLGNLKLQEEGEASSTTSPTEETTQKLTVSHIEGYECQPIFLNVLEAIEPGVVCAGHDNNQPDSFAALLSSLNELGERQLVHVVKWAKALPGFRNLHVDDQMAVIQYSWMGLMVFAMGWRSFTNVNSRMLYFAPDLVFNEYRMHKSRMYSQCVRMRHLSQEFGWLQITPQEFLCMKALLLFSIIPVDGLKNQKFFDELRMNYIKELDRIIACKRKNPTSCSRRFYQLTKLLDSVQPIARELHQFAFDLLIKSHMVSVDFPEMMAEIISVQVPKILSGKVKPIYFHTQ
# Assay: LNCaP Androgen Receptor Down-Regulation Cell Assay
# Type: cell-based
# Conditions: LNCaP prostate carcinoma cell line; 20-22 hours incubation; immunofluorescence; 50% reduction of the AR signal
# Description: The ability of compounds to reduce Androgen Receptor (AR) numbers was assessed in a cell based immuno-fluorescence assay using the LNCaP prostate epithelial cell line.
# This immunofluorescence end point assay measures the ability of a test compound to down-regulate and reduce measured levels of the AR in the LNCaP prostate carcinoma cell line (LNCaP clone FGC (CRL-1740) obtained from the American Type Culture Collection (ATCC)).
# LNCaP cells were cultured in Growth Medium (phenol red free Roswell Park Memorial Institute (RPMI) 1640 (Invitrogen Code no. 11835-063) containing 2 mM L-Glutamine (Invitrogen Code no. 25030-024) and 1% (v/v) Penicillin/Streptomycin (10000 units/ml Penicillin and 10000 μg/ml of Streptomycin utilising penicillin G (sodium salt) and streptomycin sulphate: prepared in normal saline, Invitrogen Code no. 15140122) and 10% (v/v) foetal bovine serum (FBS)) in a 5% CO2 air incubator at 37° C. Cells for assay were harvested from T175 stock flasks by washing once in PBS (phosphate buffered saline, pH 7.4) (Invitrogen Code no. 14190-094) and harvested using 5 mls of 1× Trypsin/ethylaminediaminetetraacetic acid (EDTA) (10× Trypsin-EDTA, 5.0 g/L Trypsin, 2.0 g/L of EDTA•4Na and 8.5 g/L of NaCl, without Phenol Red, Invitrogen Code no. 15400-054) diluted in PBS solution. A 5 ml volume of Growth Medium was added to each flask (as above except that 5% (v/v) charcoal stripped FBS (HyClone Code no. SH30068.03) was included instead of 10% (v/v) FBS). Cells were syringed at least twice using a sterile 18G×1.5″ (1.2×40 mm) broad gauge needle and cell density was measured using a haemocytometer. Cells were further diluted in Growth Medium plus 5% (v/v) charcoal stripped FBS and seeded at a density of 6.5×10^3 cells per well (in 90 ul) into transparent, black, tissue culture treated 96 well plates (Packard, No. 6005182).
# Test data reported herein was generated using two different compounds preparation and dosing methods. In method (1) a 10 mM compound stock solution in 100% (v/v) DMSO was serially diluted in 4-fold steps in 100% (v/v) DMSO using a Thermo Scientific Matrix SerialMate. The diluted compounds were then further diluted 1 in 30 in assay media using a Thermo Scientific Matrix PlateMate and a 10 μl aliquot of this dilution was dosed to cells manually using a multi-channel pipette. In method (2) starting with a 10 mM compound stock solution, the Labcyte Echo 550 was used to generate a compound concentration response set diluted in 30 μl of assay media. The Echo 550 is a liquid handler that uses acoustic technology to perform direct microplate-to-microplate transfers of DMSO compound solutions. The system can be programmed to transfer volumes as low as […] in multiple increments between microplates and in so doing generates a serial dilution of compound which is then back-filled to normalise the DMSO is concentration across the dilution range. A 10 μl volume of diluted compound is then dosed to cells using a Thermo Scientific Matrix PlateMate.
# Plates were incubated overnight at 37° C., 5% CO2. Wells were then dosed with compound prepared by one of the 2 methods above and further incubated for 20-22 hours at 37° C., 5% CO2. Plates were fixed by the addition of 20 μl of 10% (v/v) formaldehyde solution (in PBS) to each well (final formaldehyde conc.=1.67% (v/v)) and left at room temperature for 10 mins. This fixative solution was removed and cells were washed with 250 μl of PBS/0.05% (v/v) Tween 20 (PBST) using an automated plate washer. This process was then repeated twice more.
# Immunostaining was performed at room temperature. Cells were permeabilised by the addition of 35 μl of PBS containing 0.5% Tween 20 and incubated for 1 hour at room temperature. Permeabilisation solution was removed and cells were washed with 250 μl of PBST using an automated plate washer. This process was then repeated twice more. […]
row,IC50,Structure (SMILES)
1,360 nM,"CN1CCN(CCOc2ccc(C3(O)CCN(c4ccc5nnc(C(F)(F)F)n5n4)CC3)cc2)CC1=O [Example 3, 4-[2-(4-[4-hydroxy-1-[3-(trifluoromethyl)[1,2,4]-triazolo[4,3-b]pyridazin-6-yl]piperidin-4-yl]phenoxy)ethyl]-1-methylpiperazin-2-one]"
2,1800 nM,"O=C(CO)N1CCN(CCOc2ccc(C3CCN(c4ccc5nnc(C(F)(F)F)n5n4)CC3)cc2)CC1 [Example 21, 2-oxo-2-{4-[2-(4-{1-[3-(trifluoromethyl)[1,2,4]triazolo[4,3-b]pyridazin-6-yl]piperidin-4-yl}phenoxy)ethyl]piperazin-1-yl]ethanol]"
3,6500 nM,"CN1CCN(CCOc2ccc(N3CCN(c4ccc5nnc(C(F)(F)F)n5n4)CC3)cc2)C(=O)C1 [Example 7, 4-methyl-1-[2-(4-{4-[3-(trifluoromethyl)[1,2,4]-triazolo[4,3-b]pyridazin-6-yl]piperazin-1-yl}phenoxy)ethyl]piperazin-2-one]"
4,36 nM,"CC(=O)N1CCCN(CCOc2ccc(C3(O)CCN(c4ccc5nnc(C(F)(F)F)n5n4)CC3)c(F)c2)CC1 [Example 41, 4-{4-[2-(4-acetyl-1,4-diazepan-1-yl)ethoxy]-2-fluorophenyl}-1-[3-(trifluoromethyl)[1,2,4]triazolo[4,3-b]pyridazin-6-yl]piperidin-4-ol]"
5,67 nM,"CC(=O)N1CCN(CCOc2ccc(C3CCN(c4ccc5nnc(C(F)(F)F)n5n4)CC3)cc2)C[C@H]1C [Example 34, 6-[4-(4-{2-[(3R)-4-acetyl-3-methylpiperazin-1-yl]ethoxy}phenyl)piperidin-1-yl]-3-(trifluoromethyl)[1,2,4]triazolo[4,3-b]pyridazine]"
6,63 nM,"CC(=O)N1CCN(CCOc2ccc(C3(O)CCN(c4ccc5nnc(C(F)(F)F)n5n4)CC3)cc2)C[C@@H]1C [Example 40, 4-(4-{2-[(3S)-4-acetyl-3-methylpiperazin-1-yl]ethoxy}phenyl)-1-[3-(trifluoromethyl) [1,2,4]triazolo[4,3-b]pyridazin-6-yl]piperidin-4-ol]"
7,140 nM,"CC(=O)N1CCN(CCOc2ccc(C3(O)CCN(c4ccc5nnc(C(F)(F)F)n5n4)CC3)c(F)c2)CC1 [Example 35, 4-{4-[2-(4-acetylpiperazin-1-yl)ethoxy]-2-fluorophenyl}-1-[3-(trifluoromethyl)[1,2,4]-triazolo[4,3-b]pyridazin-6-yl]piperidin-4-ol]"
8,710 nM,"CC(C)N1CCN(CCOc2ccc(C3CCN(c4ccc5nnc(C(F)(F)F)n5n4)CC3)cc2)CC1=O [Example 19, 1-(1-methylethyl)-4-[2-(4-{1-[3-(trifluoromethyl)[1,2,4]triazolo[4,3-b]pyridazin-6-yl]piperidin-4-yl}phenoxy)ethyl]piperazin-2-one]"
9,1200 nM,"CO[C@@H](C)C(=O)N1CCN(CCOc2ccc(C3CCN(c4ccc5nnc(C(F)(F)F)n5n4)CC3)cc2)CC1 [Example 25, 6-{4-[4-(2-{4-[(2S)-2-methoxypropanoyl]piperazin-1-yl}ethoxy)phenyl]piperidin-1-yl}-3-(trifluoromethyl)[1,2,4]triazolo[4,3-b]pyridazine]"
10,1500 nM,"COCC(=O)N1CCN(CCOc2ccc(C3CCN(c4ccc5nnc(C(F)(F)F)n5n4)CC3)cc2)CC1 [Example 22, 6-[4-(4-{2-[4-(methoxyacetyl)piperazin-1-yl]ethoxy}phenyl)piperidin-1-yl]-3-(trifluoromethyl)[1,2,4]triazolo[4,3-b]pyridazine]"
11,410 nM,"O=C1CN(CCCOc2ccc(C3CCN(c4ccc5nnc(C(F)(F)F)n5n4)CC3)cc2)CCN1C1CC1 [Example 10, 1-cyclopropyl-4-[3-(4-{1-[3-(trifluoromethyl)[1,2,4]triazolo[4,3-b]pyridazin-6-yl]piperidin-4-yl}phenoxy)propyl]piperazin-2-one]"

row,Structure (SMILES),IC50
1,"CN1CCN(CCOc2ccc(C3CCN(c4ccc5nnc(C(F)(F)F)n5n4)CC3)cc2)CC1=O [Example 2, 1-methyl-4-[2-(4-{1-[3-(trifluoromethyl)[1,2,4]-triazolo[4,3-b]pyridazin-6-yl]piperidin-4-yl}phenoxy)ethyl]piperazin-2-one]",310 nM
